Values of other authors, collected in patent US20100035949A1 (priority 2006, published 2010).

How the values were obtained:
[1] = humans
[2] = pH dependent; decreases as pH increases from acidic to neutral

With CCCCC(=O)N(Cc1ccc(-c2ccccc2-c2nnn[nH]2)cc1)[C@H](C(=O)O)C(C)C [valsartan, (S)-N-valeryl-N-{[2′-(1H-tetrazole-5-yl)-biphenyl4-yl]-methyl}-valine] as the molecule, how does the oral bioavailability ([1]; known dosage forms) read?
Its oral bioavailability is “about 25%”.

What about the “oral bioavailability, range” value ([1]; wide range with large inter- and intra-subject variabilities) of the same molecule?
The value was 25-40%.

And the permeability [2]?
Its permeability is “low”.
